According to US20160200769A1, “Compound, Transitmycin, Effective Against Bacterial and Viral Pathogens” (INDIAN COUNCIL OF MEDICAL RESEARCH, priority 2013, published 2016):
*1 amine or outer side, *2 acyl side, *3 side chain or, on linkers, in order; H or OH if unused. Where a SMILES comes first, the peptide text is derived from it. Bridges are numbered along the chain shown (N, C = ends). Roman numbers before positions name the chains, in order. [ ]: non-standard residue; d: D form. Actinocin(1to9) = Cc1c2oc3c(C)ccc(C(=O)[*:2])c3nc-2c(C(=O)[*:1])c(N)c1=O; Pro(4-oxo) = O=C1CN[C@H](C(=O)O)C1; NMeV = CN[C@H](C(=O)O)C(C)C; Sar = CNCC(=O)O

Assays:
[1] = test system: dormant tubercle bacilli grown under hypoxic condition; assay: Activity against latent TB bacilli, Wayne's dormant model; format: cell-based, M. tuberculosis
M. tuberculosis H37Rv = assay: microbe, parasite or virus in culture; format: cell-based; conditions: Mycobacterium tuberculosis
[2] = test system: M. tuberculosis SHRE sensitive; assay: microbe, parasite or virus in culture; format: cell-based; conditions: Mycobacterium tuberculosis
M. tuberculosis (XDR) = assay: microbe, parasite or virus in culture; format: cell-based; conditions: Mycobacterium tuberculosis
[3] = test system: biofilm of M. tuberculosis isolates (SHRE sensitive, MDR and XDR); assay: Inhibitory activity against MTB biofilm; format: cell-based
[4] = test system: Escherichia coli (NCIM2931); assay: MIC by micro dilution broth assay with resazurin; format: cell-based; conditions: 18 hours at 37° C.
Protocol: (§1) The minimum inhibitory concentration (MIC) of the compound of formula (I) is determined for other bacterial pathogens Staphylococcus aureus (NCIM5021), Pseudomonas aeruginosa (NClM5029) and Escherichia coli (NCIM2931). The minimum inhibitory concentration (MIC) is determined by micro dilution broth assay method with modifications using resazurin as an indicator as follows:
(§2) (i) dissolving the compound of formula (I) in absolute ethanol to a concentration of 10 mg/ml;
(§3) (ii) Serially diluting the compound and adding to successive wells in a 96 well microtiter plate and incubating with the bacterial pathogens for 18 hours at 37° C.;
(§4) (iii) maintaining the growth and sterility controls during the experiment;
(§5) (iv) adding 10 μl of 0.01% resazurin solution and incubating for 2 hours;
(§6) (v) visually assessing the color change.
(§7) Blue colour indicates inhibition of growth, indicating MIC.

[5] = test system: Pseudomonas aeruginosa (NCIM5029); assay: MIC by micro dilution broth assay with resazurin; format: cell-based; conditions: 18 hours at 37° C.
Protocol: as §1, §2, §3, §4, §5, §6, §7

[6] = test system: Staphylococcus aureus (NCIM5021); assay: MIC by micro dilution broth assay with resazurin; format: cell-based; conditions: 18 hours at 37° C.
Protocol: as §1, §2, §3, §4, §5, §6, §7

HIV IIIB (Clade B virus) = assay: Anti-HIV activity of purified compound, p24 antigen in infected PBMC; format: cell-based, HIV-1; conditions: day 7, 0 μg/ml control 2394
Protocol: (§8) Virus production by transfection of 293T cells: 293T cells are plated at a concentration of 1×10^6 cells/ml in a 100 mm culture dish and grown at 37° C. in a CO2 incubator for 24 hours. Cells are transfected with 20 μg of HIV IIIB plasmid DNA using the mammalian cell transfection kit (Millipore). The culture supernatant is collected at 48 hours post transfection, clarified by centrifugation and stored in liquid nitrogen.
(§9) Titration of virus stock: Seven serial four-fold dilutions of virus stock, ranging from 1:[…] are titrated in triplicate in a 96-well flat bottomed tissue culture plate containing 200,000 cells/well (PBMC stimulated with PHA for 72 hours). After 7 days of culture at 37° C. in a CO2 incubator, the titration assay is terminated and the culture supernatants are tested for HIV-1 p24 antigen. The TCID50 (tissue culture infection dose50) is calculated employing the Spearman-Kaber method.
(§10) Testing for anti-HIV activity of compound: HIV IIIB is used as a representative Glade B virus and Indie-Cl as a representative Glade C virus. Healthy donor PBMC (Peripheral blood mononuclear cells) activated through PHA (Phyto heme agglutinin) stimulation for 72 hours are incubated with 100TCID50 of the virus per 1×10^6 cells for 2 hours at 37° C. The cells are washed twice to get rid of the unadsorbed virus and plated at a concentration of 200,000 cells/well in a 96-well tissue culture plate. Varying concentrations of the compound are added to triplicate wells (concentrations tested were 0.001 μg/ml, 001 μg/ml, 0.1 μg/ml, 1.0 μg/ml, 5.0 μg/ml and 10.0 tg/ml). Control cultures are set up without addition of the compound. Cultures are maintained for 7 days at 37° C. in a CO2 incubator. On day 7, culture supernatants are tested for HIV-1 p24 antigen.
(§11) Measurement of HIV-1 p24 antigen: HIV-1 p24 antigen production is measured as an indirect measure of viral replication in the culture supernatants using the Alliance HIV-1 p24 ELISA kit (Perkin Elmer, USA).
(§12) Virus growth is .determined, by measuring p24 concentrations in culture supernatants.

Indie-Cl (Clade C virus) = assay: as above; format: cell-based, HIV-1; conditions: day 7, 0 μg/ml control 406
Protocol: as §8, §9, §10, §11, §12

3T3 cells = assay: Cytotoxicity, MTT assay; format: cell-based; set-up: unit of the concentration uncertain; conditions: for Average % Viability: 3T3 cells, MTT
Protocol: Cytotoxicity of the compound is measured by adopting MTT assay (Mosmann, 1983) as follows:
(i) preparing, the sample by inoculating 3T3 cells in 5×10^4 concentrations in each well of 96 well microtiter plates with in Dulbecco's modified Eagles medium (DMEM) containing 10% FBS, 100 U/ml Penicillin 100 µg/ml Streptomycin;
(ii) incubating for a period of 2 days at a temperature of 37° C. in 5% CO2 atmosphere (Astec Japan); […]
(iv) Discarding the growth medium in the plates and washing the wells with phosphate buffer saline (PBS);
(v) Adding MTT in growth medium at a final concentration of 0.5 mg/ml and incubating for 4 hours;
(vi) solublizing the insoluble formazan crystals' with 0.04N HCl in isopropylalcohol and measuring the absorption on a Spectramax Plus384 spectrophotometer (Molecular Devices, Calif., USA) at 570 nm.
For each of the samples evaluated, the test is performed in triplicate. The control cells are treated with PBS. Overnight experiment is done with DMSO alone as a control.

[7] = Solubility of purified compound in solvents; format: physicochemical
Protocol: Solubility of purified compound is tested by adding the purified compound in 100 jxl of solvents such as methanol, chloroform, dichloromethane, diethyl ether, ethyl acetate and n-hexane. Melting point of the purified compound is tested using Tempo instrument and is determined as 240-242° C.

SMILES: NNC(=O)c1ccncc1 [INH, reference compound]
- Effect of standard drug against latent tubercle bacilli ([1]; negative control): resistant

SMILES: Cc1c2oc3c(C)ccc(C(=O)N[C@@H]4C(=O)N[C@@H](C(C)C)C(=O)N5CCC[C@H]5C(=O)N(C)CC(=O)N(C)[C@@H](C(C)C)C(=O)O[C@@H]4C)c3nc-2c(C(=O)N[C@@H]2C(=O)N[C@@H](C(C)C)C(=O)N3CC(=O)C[C@H]3C(=O)N(C)CC(=O)N(C)[C@@H](C(C)C)C(=O)O[C@@H]2C)c(N)c1=O [compound of formula (I), Transitmycin] (I: TV[Pro(4-oxo)][Sar][NMeV] / II: TVP[Sar][NMeV]; ester I:1-I:C, II:1-II:C; linker I:N-II:N via Actinocin(1to9))
- MIC (M. tuberculosis H37Rv): < 1 µg/mL
- MIC [2]: 1.5 µg/mL
- MIC (M. tuberculosis (XDR)): 6.25 µg/mL
- CFU in M. tuberculosis cultures compared with CFU without the compound [1]: Reduction in the CFU
- Biofilm formation ([3]; 100 μg/ml, 37° C., 5 weeks): no, biofilm formation
- Viable colonies (CFU) after treatment of wells ([3]; at the end of 2 months, […]): no viable colonies
- MIC [4]: 17.4 µg/mL
- MIC [5]: 17.4 µg/mL
- MIC [6]: 139 µg/mL
- P24 antigen (HIV IIIB (Clade B virus); compound 0.001 μg/ml): 1603 pg/mL
- P24 antigen (HIV IIIB (Clade B virus); compound 0.01 μg/ml): 337 pg/mL
- P24 antigen (HIV IIIB (Clade B virus); compound 0.1 μg/ml): 163 pg/mL
- P24 antigen (HIV IIIB (Clade B virus); compound 1 μg/ml): 144 pg/mL
- P24 antigen (HIV IIIB (Clade B virus); compound 5 μg/ml): 147 pg/mL
- P24 antigen (HIV IIIB (Clade B virus); compound 10 μg/ml): 163 pg/mL
- P24 antigen (Indie-Cl (Clade C virus); compound 0.001 μg/ml): 390 pg/mL
- P24 antigen (Indie-Cl (Clade C virus); compound 0.01 μg/ml): 310 pg/mL
- P24 antigen (Indie-Cl (Clade C virus); compound 0.1 μg/ml): 344 pg/mL
- P24 antigen (Indie-Cl (Clade C virus); compound 1 μg/ml): 302 pg/mL
- P24 antigen (Indie-Cl (Clade C virus); compound 5 μg/ml): 295 pg/mL
- P24 antigen (Indie-Cl (Clade C virus); compound 10 μg/ml): 296 pg/mL
- Average % Viability (3T3 cells; 10 (unit uncertain)): 93.00%
- Average % Viability (3T3 cells; 25 (unit uncertain)): 86.01%
- Average % Viability (3T3 cells; 50 (unit uncertain)): 73.88%
- Average % Viability (3T3 cells; 100 (unit uncertain)): 66.13%
- Cytotoxic activity (3T3 cells; even at 100 (unit uncertain) concentration): very poor cytotoxic activity
- Solubility ([7]; Chloroform, Dichloromethane, Ethyl acetate, Methanol, Ethanol, Acetonitrile, DMSO, water): Souble
- Solubility ([7]; Hexane): Insoluble
